{"source": "patent US10329304B2", "about": "“Compounds and methods for inhibition of hedgehog signaling and phosphodiesterase” (Vanderbilt University, priority 2014, dated 2019)", "key": {"[1]": {"system": "IFT88 localization", "experiment": "IFT88 immunostaining in NIH3T3 cells", "format": "cell-based", "details": "EGM 5 μM, ciliobrevin D 100 μM", "source_text": "To investigate whether the disruption of the cilium-to-nucleus trafficking of Gli2 by eggmanone was due to a general defect in the retrograde transport within the primary cilium, we compared the effect of the cytoplasmic dynein motor inhibitor ciliobrevin D with the effect of eggmanone on the intraflagellar transport protein 88 (IFT88) trafficking^19. […] Thus, the effects of eggmanone on Gli2 trafficking is specific, rather than an indirect consequence of a global defect in ciliary transport machinery."}, "[2]": {"experiment": "Lipophilic efficiency (LipE = pEC50 − cLogP) and cLogP", "description": "Therefore, we prioritized phenotypic analog evaluation in the Gli-responsive luciferase reporter line TM3-Gli-Luc stimulated with 20 nM Smo agonist (SAG) while concurrently monitoring non-specific cellular toxicity. Additionally, lipophilic efficiency (LipE), a concurrent readout of a compound's potency (pEC50) and lipophilicity (cLogP) derived by subtracting the latter from the former, was utilized to optimize solubility properties (Table 12B), allowing for straightforward tracking of compounds with improvements in both parameters."}, "[3]": {"system": "Gli1 transcription", "experiment": "Sufu−/− mouse embryonic fibroblasts qRT-PCR", "format": "cell-based", "details": "Gli1 and Ptch1", "source_text": "In light of EGM1's ability to halt Hh transcriptional activity at a node downstream of the negative regulator Sufu, and thus also downstream of Smo, we sought to confirm mode of action retention with our most promising analogs. Therefore, we employed Sufu−/− mouse embryonic fibroblasts (MEF) that display constitutively active transcription of Hh target genes Gli1 and Ptch1 and monitored the ability of our optimized analogs to repress signaling via quantitative reverse transcription-PCR (qRT-PCR). […] We then evaluated improved analogs from multiple structural classes including those from Table 1 with cyclohexylthiophene cores as well as from Table 13 with structurally distinct core modifications.\nSufu^−/− cells were seeded into 12-well plates at a density of 100,000 cells/well in D10 FBS and incubated for 24 hours. Small molecule solutions were prepared by adding the desired amount of compound from 10 mM DMSO stock to D0.5 FBS. Negative control was prepared by adding an equi-volume amount of DMSO to D0.5 FBS as compared to small molecule treated conditions. Cell plating medium was aspirated and replaced with 1 mL of prepared small molecule-containing media, and plates were incubated for 24 hours before proceeding to RNA isolation.\nCells were washed 1× with 1× phosphate-buffered saline (PBS) then RNA was isolated using the Qiagen RNeasy Mini Kit (Qiagen, Germantown, Md., USA) according to the manufacturer's protocol, eluting RNA from the spin column with 30 μL of RNase-free water. RNA was placed on ice and immediately subjected to reverse transcription. Remaining RNA was stored at −80° C.\nReverse transcription polymerase chain reaction (RT-PCR) was performed with the Applied Biosystems High Capacity cDNA Reverse Transcription Kit (ThermoFisher Scientific, Waltham, Mass., USA) using an Eppendorf MasterCycler. Each 20 μL reaction contained 0.5 μg of total RNA, 2 μL of 10×RT Buffer, 0.8 μL of 25×dNTP Mix (100 mM), 2 μL of 10×RT Random Primers, 1 μL of MultiScribe® Reverse Transcriptase (50 U/μL), 1 μL of Recombinant RNasin® Ribonuclease Inhibitor (40 U/μL) (Promega, Madison, Wis., USA), and nuclease-free water. Reverse transcription was performed with the following program: 25° C. for 10 minutes, 37° C. for 120 minutes, and 85° C. for 5 minutes. The cDNA was subjected to quantitative real-time PCR (Q-PCR) or stored at −20° C.\nQuantitative real-time PCR was performed on an Applied Biosystems 7900 HT Fast Real Time PCR System in 384-well format. Each cDNA sample was assayed in triplicate with both probe of interest and control probe. Master mixes for each probe were prepared corresponding to 10 μL of Applied Biosystems TaqMan Universal PCR Master Mix (ThermoFisher Scientific, Waltham, Mass., USA), 1 μL of primer, and nuclease-free water corresponding to a volume providing 20 μL reactions when loading an average of 50 ng of cDNA. Quantitative real-time PCR was run with the following thermal cycling protocol: 50° C. for 2 min., 95° C. for 10 min., and 40 cycles of 95° C. for 15 seconds, 60° C. for 1 min., then fluorescence reading. The following FAM probes were purchased from Life Technologies (Carlsbad, Calif., USA): mouse GAPDH, Mm99999915_g1; mouse Gli1, Mm00494646_g1; mouse Ptch1, Mm01306905_m1.\nQuantitative real-time PCR data for Hh signaling inhibition was quantitated using the ΔΔCt method. Control probe values were subtracted from probe of interest values to arrive at the ΔCt value. The ΔCt value was transformed by 2-^ΔCt to arrive at the ΔΔCt value. All ΔΔCt values were divided by the average negative control ΔΔCt value to provide percent Hh signaling activity. Percent inhibition values were derived by calculating the inverse of percent activity. Data is reported as mean±standard error of the mean (SEM), representing at least two biological replicates, each quantitated in triplicate."}, "[4]": {"molecular_target": "consensus PDE4D sequence (Homo sapiens, UniProt Q08499)", "sequence (Q08499 whole entry)": "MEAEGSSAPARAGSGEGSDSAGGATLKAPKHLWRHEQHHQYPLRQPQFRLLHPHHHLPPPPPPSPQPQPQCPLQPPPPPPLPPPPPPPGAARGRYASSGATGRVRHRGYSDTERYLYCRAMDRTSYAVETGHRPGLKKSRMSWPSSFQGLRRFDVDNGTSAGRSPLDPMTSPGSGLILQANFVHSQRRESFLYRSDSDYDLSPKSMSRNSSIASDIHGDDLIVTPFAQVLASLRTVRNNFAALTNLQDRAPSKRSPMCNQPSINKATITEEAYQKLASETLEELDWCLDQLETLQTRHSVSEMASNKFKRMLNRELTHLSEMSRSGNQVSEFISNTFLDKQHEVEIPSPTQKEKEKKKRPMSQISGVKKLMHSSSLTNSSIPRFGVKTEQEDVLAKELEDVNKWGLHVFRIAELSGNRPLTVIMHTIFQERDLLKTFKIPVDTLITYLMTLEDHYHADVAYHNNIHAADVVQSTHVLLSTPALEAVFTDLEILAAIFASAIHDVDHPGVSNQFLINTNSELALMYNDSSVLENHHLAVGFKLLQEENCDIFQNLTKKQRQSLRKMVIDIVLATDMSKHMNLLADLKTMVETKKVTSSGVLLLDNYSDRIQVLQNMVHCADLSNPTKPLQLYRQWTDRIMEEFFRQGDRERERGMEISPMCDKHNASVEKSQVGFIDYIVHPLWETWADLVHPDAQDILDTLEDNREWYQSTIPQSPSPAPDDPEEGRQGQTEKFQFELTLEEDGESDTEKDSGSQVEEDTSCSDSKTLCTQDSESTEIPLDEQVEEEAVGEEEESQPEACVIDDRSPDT", "experiment": "PDE4D inhibition (consensus PDE4D sequence)", "format": "biochemical", "from_the_text": "First, the contribution of PDE4 was revisited as a potential explanation for the observed mechanistic drift."}, "[5]": {"molecular_target": "PDE4D (Homo sapiens, UniProt Q08499)", "sequence (Q08499 whole entry)": "as above", "experiment": "PDE4 inhibition assay (PDE4D IC50)", "format": "biochemical", "details": "mean ± SEM, normalized to DMSO; read-out: PDE4D IC50", "procedure,_shortened": "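Duplicate 60 min room-temperature reactions hold 100 nM FAM-cAMP substrate, PDE4D enzyme and test compound at 1% final DMSO in pH7.4 Tris buffer. Product FAM-AMP captured by bead binding agent (60 min), with fluorescence read at excitation 485, emission 528 nm.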"}, "[6]": {"molecular_target": "T1, Smo cyclopamine (Cyc) binding site (Homo sapiens, UniProt Q99835)", "T1 construct": "expressed in transfected cells; host or cells: HEK-293T", "T1 sequence (Q99835 28-787)": "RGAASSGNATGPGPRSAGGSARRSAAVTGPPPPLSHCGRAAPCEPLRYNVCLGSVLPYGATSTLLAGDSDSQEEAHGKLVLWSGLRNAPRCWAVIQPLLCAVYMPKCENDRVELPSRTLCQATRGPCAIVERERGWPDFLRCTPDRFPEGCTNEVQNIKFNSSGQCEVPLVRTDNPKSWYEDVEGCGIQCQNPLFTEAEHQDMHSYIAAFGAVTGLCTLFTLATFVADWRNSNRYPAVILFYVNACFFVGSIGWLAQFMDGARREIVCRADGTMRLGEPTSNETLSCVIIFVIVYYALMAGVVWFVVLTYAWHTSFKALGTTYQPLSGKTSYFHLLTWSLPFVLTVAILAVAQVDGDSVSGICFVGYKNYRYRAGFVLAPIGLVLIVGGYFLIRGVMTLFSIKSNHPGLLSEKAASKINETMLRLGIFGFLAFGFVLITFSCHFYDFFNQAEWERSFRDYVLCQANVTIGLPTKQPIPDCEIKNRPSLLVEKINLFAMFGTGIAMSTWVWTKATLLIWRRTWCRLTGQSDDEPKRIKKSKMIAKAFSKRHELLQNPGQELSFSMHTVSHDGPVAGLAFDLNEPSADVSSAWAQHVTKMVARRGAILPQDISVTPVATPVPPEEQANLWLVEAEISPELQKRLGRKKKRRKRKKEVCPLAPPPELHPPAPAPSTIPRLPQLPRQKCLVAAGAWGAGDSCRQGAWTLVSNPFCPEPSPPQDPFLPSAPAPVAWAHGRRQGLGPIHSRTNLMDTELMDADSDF", "experiment": "BODIPY-cyclopamine competition in HEK-293T cells overexpressing Smo", "details": "KAAD-Cyc 200 nM; analogs at 10- to 20-fold their EC50s", "description": "Thus, HEK-293T cells overexpressing Smo were concurrently treated with 5 nM BODIPY-Cyc and molecules of interest."}, "[7]": {"system": "Hedgehog signaling (TM3-Gli-Luc)", "experiment": "TM3-Gli-Luc luciferase reporter assay stimulated with 20 nM SAG", "format": "cell-based", "procedure,_shortened": "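Luciferase read-out divided by CellTiter-Glo viability, minus DMSO/no-SAG baseline, expressed relative to 20 nM SAG alone. Cells exposed to compound with SAG for 48 h at 37 °C in 2.5% FBS DMEM/F12 on gelatin. EC50 ±SEM from at least two separate-day runs.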"}, "[8]": {"system": "TM3-Gli-Luc cells", "experiment": "TM3-Gli-Luc cell viability (Cell Titer Glo, LD50)", "format": "cell-based", "description": "On the day of cell plating, 96-well plates were coated with 50 μL/well of sterile 0.1% gelatin for 5 minutes then aspirated and replaced with 50 μL/well of TM3 Culture Medium. TM3-Gli-Luc cells were seeded at a density of 5,000 cells/well in TM3 Culture Medium and incubated for 24 hours. A master mix of 20 nM SAG in TM3Luc Medium was prepared, and small molecule solutions were prepared by adding the desired amount of compound from 10 mM DMSO stock to TM3Luc Medium containing 20 nM SAG. Negative control was prepared by adding an equi-volume amount of DMSO as compared to small molecule treated conditions to TM3Luc Medium not containing SAG. Cell plating medium was aspirated and replaced with 100 μL/well of prepared small molecule-containing media, and plates were incubated for 48 hours before proceeding to luciferase activity and cell viability reading.\nTM3Luc Medium from compound treated plates was aspirated and replaced with 82 μL/well of Glo Lysis Buffer (Promega, Madison, Wis., USA), and plates were shaken at 300 rpm and room temperature for 12 minutes. Lysate was split between two white 96-well plates, 45 μL/well and 25 μL/well for luciferase reading and cell viability respectively. For luciferase activity monitoring, 45 μL/well of Steady Glo (Promega, Madison, Wis., USA) was added to 45 μL/well of cell lysate, incubated at room temperature for 5 minutes, then luminescence was measured on a Turner Biosystems Modulus Microplate Reader (Sunnyvale, Calif., USA) with an integration time of 0.5 seconds. For cell viability measurement, 25 μL/well of Cell Titer Glo (Promega, Madison, Wis., USA) (prepared by 1:10 dilution with Glo Lysis Buffer) was added to 25 μL/well of cell lysate, incubated at room temperature for 5 minutes, then luminescence was measured as above.\nAll raw data was divided by the average of positive control cell titer data to arrive at percent cells remaining compared to positive control. […] At least two independent assays tested on separate days were averaged to provide LD50±standard error of the mean."}, "[9]": {"details": "calculated as pEC50 - cLogP (Molinspiration Cheminformatics), Table 13"}, "[10]": {"details": "TM3-Gli-Luc reporter line stimulated with 20 nM SAG, mean ± SEM, Table 13, read-out: TM3-Gli-Luc EC50"}, "[11]": {"details": "TM3-Gli-Luc reporter line stimulated with 20 nM SAG, mean ± SEM, Table 14, read-out: TM3-Gli-Luc EC50"}}, "note": "“Also recorded” adds a separate entry of the source. Like-named read-outs stand apart in the source and are kept apart here."}
{"smiles": "N#CC(=C(O)c1ccc(Cl)cc1Cl)c1nc2cc(Cl)ccc2c(=O)[nH]1", "note": "[Ciliobrevin D, reference compound]", "values": [{"measurement": "IFT88 localization in the cilium", "setting": "[1]", "result": "perturbed the localization of IFT88 in the cilium"}, {"measurement": "IFT88 localization in the cilium", "setting": "[1]; listed as ciliobrevin D", "result": "severely disrupted the IFT88 localization in the cilium"}]}
{"smiles": "O=c1c2ccsc2nc(SCC(O)c2ccccc2)n1C1CC1", "note": "(stereo not shown) [Formula 20a]", "values": [{"measurement": "LipE", "setting": "[2]; pEC50 - cLogP, Table 14", "result": 3.41}, {"measurement": "Transcriptional inhibition in the Sufu−/− cell line, in words", "setting": "[3]", "result": "lack of Sufu−/− transcriptional inhibition"}, {"measurement": "PDE4D inhibition in words", "setting": "[4]", "result": "only modest ICs against PDE4D"}, {"measurement": "IC50", "setting": "[5]", "result": "6070 ± 1500", "unit": "nM"}, {"measurement": "Displacement of BODIPY-cyclopamine (5 nM) from Smo", "setting": "[6]", "result": "do not displace the binding of BODIPY-cyclopamine; also recorded: failed to compete for the Smo binding site"}]}
{"smiles": "O=C(CSc1nc2ccccc2c(=O)n1C1CC1)c1cccs1", "note": "[Formula 14b]", "values": [{"measurement": "LipE", "setting": "[2]; [9]", "result": 2.78}, {"measurement": "LipE", "setting": "[2]; pEC50 - cLogP, Table 14", "result": 2.78}, {"measurement": "Transcriptional inhibition in the Sufu−/− cell line, in words", "setting": "[3]", "result": "lack of Sufu−/− transcriptional inhibition"}, {"measurement": "Hh inhibitory activity / potency in words", "setting": "[7]; 20 nM SAG", "result": "potency improvements over EGM1"}, {"measurement": "EC50", "setting": "[7]; 20 nM SAG, read-out: EC50", "result": 685, "unit": "nM"}, {"measurement": "EC50", "setting": "[7]; [10]", "result": "685 ± 20", "unit": "nM"}, {"measurement": "EC50", "setting": "[7]; [11]", "result": "685 ± 20", "unit": "nM"}, {"measurement": "Displacement of BODIPY-cyclopamine (5 nM) from Smo", "setting": "[6]", "result": "do not displace the binding of BODIPY-cyclopamine; also recorded: failed to compete for the Smo binding site"}]}
{"smiles": "C=C(C)Cn1c(SCC(=O)N2CCCCC2C)nc2sc3c(c2c1=O)CCCC3", "note": "(stereo not shown) [Formula 9m]", "values": [{"measurement": "LipE", "setting": "[2]; Calculated as pEC50 - cLogP, Molinspiration Cheminformatics", "result": 0.94}, {"measurement": "LipE", "setting": "[2]; pEC50 - cLogP, Table 14", "result": 0.94}, {"measurement": "LD50", "setting": "[8]", "result": 16.7, "unit": "µM"}, {"measurement": "TM3-Gli-Luc LD50", "setting": "[8]; mean ± standard error of the mean", "result": "16.7 ± 0.25", "unit": "µM"}, {"measurement": "Transcriptional inhibition in the Sufu−/− cell line, in words", "setting": "[3]", "result": "general ability to inhibit transcriptional activity"}, {"measurement": "reduction in potency versus EGM1", "setting": "[7]", "result": "~2", "unit": "fold"}, {"measurement": "EC50", "setting": "[7]; 20 nM SAG, mean ± standard error of the mean, read-out: TM3-Gli-Luc EC50", "result": "2320 ± 730", "unit": "nM"}, {"measurement": "EC50", "setting": "[7]; [11]", "result": "2320 ± 730", "unit": "nM"}]}
{"smiles": "O=C(CSc1nc2sccc2c(=O)n1C1CC1)c1ccccc1", "note": "[Formula 19c]", "values": [{"measurement": "LipE", "setting": "[2]; [9]", "result": 3.84}, {"measurement": "LipE", "setting": "[2]; pEC50 - cLogP, Table 14", "result": 3.84}, {"measurement": "Non-specific cellular toxicity", "setting": "[8]", "result": "no non-specific cellular toxicity"}, {"measurement": "Transcriptional inhibition in the Sufu−/− cell line, in words", "setting": "[3]", "result": "lack of Sufu−/− transcriptional inhibition"}, {"measurement": "PDE4D inhibition in words", "setting": "[4]", "result": "only modest ICs against PDE4D"}, {"measurement": "EC50", "setting": "[7]; [10]", "result": "82 ± 10", "unit": "nM"}, {"measurement": "EC50", "setting": "[7]; [11]", "result": "82 ± 10", "unit": "nM"}, {"measurement": "Displacement of BODIPY-cyclopamine (5 nM) from Smo", "setting": "[6]", "result": "do not displace the binding of BODIPY-cyclopamine; also recorded: failed to compete for the Smo binding site"}]}
